Columns and labels:
μ-opioid receptor = target: T1, μ-opioid receptor (Homo sapiens, UniProt P35372); test: μ-opioid receptor [35S]GTPγS functional assay; type: biochemical; conditions: for Emax: maximal effect relative to the effect elicited by DAMGO, HEK-293 cells
T1 construct: host or cells: HEK-293; b235 lists HEK-293, CHO or U-2 OS)
Method: [^35S]GTPγS functional assays were conducted using freshly thawed μ-receptor membranes prepared in-house from a cell line expressing recombinant t opioid receptor in a HEK-293, CHO or U-2 OS cell background, or purchased from a commercial source (Perkin Elmer, Shelton, Conn.; or DiscovRx, Fremont, Calif.). Assay reactions were prepared by sequentially adding the following reagents to binding buffer (100 mM NaCl, 10 mM MgCl2, 20 mM HEPES, pH 7.4) on ice (final concentrations indicated): membrane protein (0.026 mg/mL), saponin ([…]), GDP ([…]) and [^35S]GTPγS (0.20 nM; Perkin Elmer, Shelton, Conn.). The prepared membrane solution (190 μl/well) was transferred to 96-shallow well polypropylene plates containing 10 al of 20× concentrated stock solutions of the agonist [D-Ala^2, N-methyl-Phe^4 Gly-ol^5]-enkephalin (DAMGO) prepared in dimethyl sulfoxide (DMSO). Plates were incubated for 30 min at about 25° C. with shaking. Reactions were terminated by rapid filtration onto 96-well Unifilter GF/B filter plates (Perkin Elmer, Shelton, Conn.) using a 96-well tissue harvester (Perkin Elmer, Shelton, Conn.) followed by three filtration washes with 200 μl of ice-cold wash buffer (10 mM NaH2PO4, 10 mM Na2HPO4, pH 7.4). Filter plates were subsequently dried at 50° C. for 2-3 hours. BetaScint scintillation cocktail (Perkin Elmer, Shelton, Conn.) was added (50 μl/well) and plates were counted using a Packard Top-Count for 1 min/well. Data were analyzed using the sigmoidal dose-response curve fitting functions in GraphPad PRISM v. 3.0, or an in-house function for non-linear, sigmoidal dose-response curve-fitting.
μGTP EC50 is the concentration of a compound providing 50% of the maximal response for the compound at a μ-opioid receptor.
μ GTP Emax (%) is the maximal effect elicited by a compound relative to the effect elicited by DAMGO, a standard agonist. Generally, the μ GTP Emax (%) value measures the efficacy of a compound to treat or prevent pain or other Conditions.
(§1) In TABLE 2, activity response of certain Compounds of the Invention to the μ- and κ-opioid receptors was determined as described above for functional assays using HEK-293 cells.

κ-opioid receptor [1] = target: T2, κ-opioid receptor (Homo sapiens, UniProt P41145); test: κ-opioid receptor radioligand dose displacement binding assay ([3H]-U69,593); set-up: expressed in transfected cells; host or cells: HEK-293 (in-house membrane prep)
T2 sequence (P41145 whole entry): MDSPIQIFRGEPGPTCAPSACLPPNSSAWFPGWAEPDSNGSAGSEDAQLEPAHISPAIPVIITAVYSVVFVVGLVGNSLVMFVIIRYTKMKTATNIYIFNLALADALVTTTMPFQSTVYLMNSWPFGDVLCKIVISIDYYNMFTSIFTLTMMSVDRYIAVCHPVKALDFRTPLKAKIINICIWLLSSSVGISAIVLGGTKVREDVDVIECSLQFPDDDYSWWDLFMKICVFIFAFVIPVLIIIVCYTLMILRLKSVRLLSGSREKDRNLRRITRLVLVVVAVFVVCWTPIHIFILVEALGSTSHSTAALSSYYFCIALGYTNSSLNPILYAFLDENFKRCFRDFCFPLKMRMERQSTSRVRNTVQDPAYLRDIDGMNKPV
Method: Membranes from HEK-293 cells, CHO or U-2 OS cells expressing the recombinant human kappa opioid receptor (K) were prepared by lysing cells in ice cold hypotonic buffer (2.5 mM MgCl2, 50 mM HEPES, pH 7.4) (10 mL/10 cm dish) followed by homogenization with a tissue grinder/Teflon pestle. Membranes were collected by centrifugation at 30,000×g for 15 min at 4° C. and pellets were resuspended in hypotonic buffer to a final concentration of 1-3 mg/mL. Protein concentrations were determined using the BioRad protein assay reagent with bovine serum albumen as standard. Aliquots of κ receptor membranes were stored at −80° C.
Radioligand dose displacement assays used 0.4 nM [^3H]-U69,593 (GE Healthcare, Piscataway, N.J.; 40 Ci/mmole) with 15 μg membrane protein (recombinant K opioid receptor expressed in HEK 293 cells; in-house prep) in a final volume of 200 μl binding buffer (5% DMSO, 50 mM Trizma base, pH 7.4). Non-specific binding was determined in the presence of 10 μM unlabeled naloxone or U69,593. All reactions were performed in 96-well polypropylene plates for 1 hour at a temperature of about 25° C. Binding reactions were terminated by rapid filtration onto 96-well Unifilter GF/C filter plates (Perkin Elmer, Shelton, Conn.) presoaked in 0.5% polyethylenimine (Sigma). Harvesting was performed using a 96-well tissue harvester (Perkin Elmer, Shelton, Conn.) followed by five filtration washes with 200 μl ice-cold binding buffer. Filter plates were subsequently dried at 50° C. for 1-2 hours. Fifty μl/well scintillation cocktail (Perkin Elmer, Shelton, Conn.) was added and plates were counted in a Packard Top-Count for 1 min/well.
In TABLE 1, binding affinity of certain Compounds of the Invention to the κ-opioid receptors was determined as described above.

κ-opioid receptor [2] = target: T2, κ-opioid receptor; test: κ-opioid receptor [35S]GTPγS functional assay; type: biochemical; set-up: expressed in transfected cells; host or cells: HEK-293 (in-house membranes); conditions: for Emax: maximal effect relative to the effect elicited by U69,593, HEK-293 cells
Method: Functional [^35S]GTPγS binding assays were conducted as follows. K opioid receptor membrane solution was prepared by sequentially adding final concentrations of 0.026 μg/μl κ membrane protein (in-house), 10 μg/mL saponin, 3 μM GDP and 0.20 nM [^35S]GTPγS to binding buffer (100 mM NaCl, 10 mM MgCl2, 20 mM HEPES, pH 7.4) on ice. The prepared membrane solution (190 μl/well) was transferred to 96-shallow well polypropylene plates containing 10 μl of 20× concentrated stock solutions of agonist prepared in DMSO. Plates were incubated for 30 min at a temperature of about 25° C. with shaking. Reactions were terminated by rapid filtration onto 96-well Unifilter GF/B filter plates (Perkin Elmer, Shelton, Conn.) using a 96-well tissue harvester (Packard) and followed by three filtration washes with 200 μl ice-cold binding buffer (10 mM NaH2PO4, 10 mM Na2HPO4, pH 7.4). Filter plates were subsequently dried at 50° C. for 2-3 hours. Fifty μl/well scintillation cocktail (Perkin Elmer, Shelton, Conn.) was added and plates were counted in a Packard Top-Count for 1 min/well.
κ GTP EC50 is the concentration of a compound providing 50% of the maximal response for the compound at a κ receptor.
κ GTP Emax (%) is the maximal effect elicited by a compound relative to the effect elicited by U69,593.
as §1

T1 sequence (P35372 whole entry, species assumed): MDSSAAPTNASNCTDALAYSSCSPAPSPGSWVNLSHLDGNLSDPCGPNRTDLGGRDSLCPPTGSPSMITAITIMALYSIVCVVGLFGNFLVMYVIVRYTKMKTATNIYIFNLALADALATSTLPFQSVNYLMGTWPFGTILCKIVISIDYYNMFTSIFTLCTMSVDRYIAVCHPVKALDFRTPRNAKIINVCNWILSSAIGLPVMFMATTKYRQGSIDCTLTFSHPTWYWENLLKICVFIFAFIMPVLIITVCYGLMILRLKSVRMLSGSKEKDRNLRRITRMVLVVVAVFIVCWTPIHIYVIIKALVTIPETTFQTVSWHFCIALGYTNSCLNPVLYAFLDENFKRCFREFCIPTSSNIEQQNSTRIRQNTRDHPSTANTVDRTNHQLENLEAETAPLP

## COC(=O)c1cc2c([nH]c1=O)C[C@]13CCN(C(=O)OC(C)(C)C)[C@H](Cc4ccc(OC)cc41)[C@]3(O)C2 [Compound 3, 15-(tert-Butyl) 9-methyl (6R,6aS,12aR)-6a-hydroxy-2-methoxy-10-oxo-6,6a,7,10,11,12-hexahydro-5H-6,12a-(epiminoethano)naphtho[2,1-g]quinoline-9,15-dicarboxylate]
μ-opioid receptor
  EC50: > 20000 nM
  Emax: 0%

## COC(=O)c1cc2c([nH]c1=O)C[C@]13CCN[C@H](Cc4ccc(OC)cc41)[C@]3(O)C2 [Compound 4, Methyl (6R,6aS,12aR)-6a-hydroxy-2-methoxy-10-oxo-6,6a,7,10,11,12-hexahydro-5H-6,12a-(epiminoethano)naphtho[2,1-g]quinoline-9-carboxylate]
μ-opioid receptor
  EC50: > 20000 nM
  Emax: 20 ± 2.08%

## NC(=O)c1cc2c([nH]c1=O)C[C@]13CCN[C@H](Cc4ccc(O)cc41)[C@]3(O)C2 [Compound 6]
μ-opioid receptor
  EC50: 2900 ± 868 nM
  Emax: 23 ± 1%

## COc1ccc2c(c1)[C@]13CCN(C)[C@H](C2)[C@@H]1Cc1cc(C(=O)O)c(=O)[nH]c1C3 [Compound 8, (6R,6aR,12aS)-2-methoxy-15-methyl-10-oxo-6,6a,7,10,11,12-hexahydro-5H-6,12a-(epiminoethano)naphtho[2,1-g]quinoline-9-carboxylic acid]
μ-opioid receptor
  EC50: 13300 ± 1800 nM
  Emax: 40.7 ± 5.04%

## CN1CC[C@]23Cc4[nH]c(=O)c(C(=O)NCc5ccccc5)cc4C[C@H]2[C@H]1Cc1ccc(O)cc13 [Compound 11, (6R,6aR,12aS)-N-benzyl-2-hydroxy-15-methyl-10-oxo-6,6a,7,10,11,12-hexahydro-5H-6,12a-(epiminoethano)naphtho[2,1-g]quinoline-9-carboxamide]
μ-opioid receptor
  EC50: 332 ± 61.7 nM
  Emax: 32.3 ± 0.88%

## CN1CC[C@]23Cc4[nH]c(=O)c(C(=O)N5CCCC5)cc4C[C@H]2[C@H]1Cc1ccc(O)cc13 [Compound 12, (6R,6aR,12aS)-2-hydroxy-15-methyl-9-(pyrrolidine-1-carbonyl)-6,6a,7,12-tetrahydro-5H-6,12a-(epiminoethano)naphtho[2,1-g]quinolin-10(11H)-one]
κ-opioid receptor [1]
  Ki: 14.4 ± 2.81 nM
μ-opioid receptor
  EC50: 145 ± 27.9 nM
  Emax: 35.3 ± 1.67%
κ-opioid receptor [2]
  EC50: 24.2 ± 11.9 nM
  Emax: 9.5 ± 0.5%

## CN1CC[C@]23Cc4[nH]c(=O)c(C(=O)N[C@@H]5c6ccccc6C[C@@H]5O)cc4C[C@H]2[C@H]1Cc1ccc(O)cc13 [Compound 13, (6R,6aR,12aS)-2-hydroxy-N-((1R,2S)-2-hydroxy-2,3-dihydro-1H-inden-1-yl)-15-methyl-10-oxo-6,6a,7,10,11,12-hexahydro-5H-6,12a-(epiminoethan)naphth[2-g]quinolinone-9-carboxamide]
μ-opioid receptor
  EC50: 484 ± 113 nM
  Emax: 34 ± 3.21%

## CN1CC[C@]23Cc4[nH]c(=O)c(C(=O)N[C@H]5c6ccccc6C[C@H]5O)cc4C[C@H]2[C@H]1Cc1ccc(O)cc13 [Compound 14, (6R,6aR,12aS)-2-hydroxy-N-((1S,2R)-2-hydroxy-2,3-dihydro-1H-inden-yl)-15-methyl-10-oxo-6,6a,7,10,11,12-hexahydro-5H-6,12a-(epiminoethano)naphtho[2,1-g]quinoline-9-carboxamide]
μ-opioid receptor
  EC50: 432 ± 135 nM
  Emax: 34 ± 2.31%

## CN(C(=O)c1cc2c([nH]c1=O)C[C@]13CCN(C)[C@H](Cc4ccc(O)cc41)[C@@H]3C2)C1CCCCC1 [Compound 15, (6R,6aR,12aS)—N-cyclohexyl-2-hydroxy-N,15-dimethyl-10-oxo-6,6a,7,10,11,12-hexahydro-5H-6,12a-(epiminoethano)naphtho[2,1-g]quinoline-9-carboxamide]
μ-opioid receptor
  EC50: 289 ± 34.8 nM
  Emax: 29.7 ± 3.28%

## CN1CC[C@]23Cc4[nH]c(=O)c(C(=O)N5Cc6ccccc6C5)cc4C[C@H]2[C@H]1Cc1ccc(O)cc13 [Compound 16, (6R,6aR,12aS)-2-hydroxy-9-(isoindoline-2-carbonyl)-15-methyl-6,6a,7,12-tetrahydro-5H-6,12a-(epiminoethano)naphtho[2,1-g]quinolin-10(11H)-one]
κ-opioid receptor [1]
  Ki: 1.41 ± 0.52 nM
μ-opioid receptor
  EC50: 40.2 ± 11.5 nM
  Emax: 47 ± 2.65%
κ-opioid receptor [2]
  EC50: > 20000 nM
  Emax: 0%

## CN1CC[C@]23Cc4[nH]c(=O)c(C(=O)N5[C@@H]6CC[C@H]5C[C@@H](O)C6)cc4C[C@H]2[C@H]1Cc1ccc(O)cc13 [Compound 17, (6R,6aR,12aS)-2-hydroxy-9-((1R,3R,5S)-3-hydroxy-8-azabicyclo[3.2.1]octane-8-carbonyl)-15-methyl-6,6a,7,12-tetrahydro-5H-6,12a-(epiminoethano)naphtho[2,1-g]quinolin-10(11H)-one]
κ-opioid receptor [1]
  Ki: 17.7 ± 7.6 nM
μ-opioid receptor
  EC50: 240 ± 36.8 nM
  Emax: 27.5 ± 2.53%
κ-opioid receptor [2]
  EC50: 152 ± 28.8 nM
  Emax: 9.74 ± 1.51%

## CN1CC[C@]23Cc4[nH]c(=O)c(C(=O)N5CCS(=O)(=O)CC5)cc4C[C@H]2[C@H]1Cc1ccc(O)cc13 [Compound 18, (6R,6aR,12aS)-9-(1,1-dioxidothiomorpholine-4-carbonyl)-2-hydroxy-15-methyl-6,6a,7,12-tetrahydro-5H-6,12a-(epiminoethano)naphtho[2,1-g]quinolin-10(11H)-one]
μ-opioid receptor
  EC50: 462 ± 88.4 nM
  Emax: 33.2 ± 3.3%

## CCn1c2c(cc(C(=O)N3Cc4ccccc4C3)c1=O)C[C@@]1(O)[C@H]3Cc4ccc(O)cc4[C@@]1(CCN3C)C2 [Compound 19, (6R,6aS,12aR)-11-ethyl-2,6a-dihydroxy-9-(isoindoline-2-carbonyl)-15-methyl-6,6a,7,12-tetrahydro-5H-6,12a-(epiminoethano)naphtho[2,1-g]quinolin-10(11H)-one]
μ-opioid receptor
  EC50: 288 ± 49.6 nM
  Emax: 30.8 ± 2.31%

## COc1ccc2c(c1)[C@]13CCN(C(=O)OC(C)(C)C)[C@H](C2)[C@]1(O)Cc1cc(C(=O)O)c(=O)[nH]c1C3 [Compound 20, (6R,6aS,12aR)-15-(tert-butoxycarbonyl)-6a-hydroxy-2-methoxy-10-oxo-6,6a,7,10,11,12-hexahydro-5H-6,12a-(epiminoethano)naphtho[2,1-g]quinoline-9-carboxylic acid]
μ-opioid receptor
  EC50: > 20000 nM
  Emax: 3%

— patent publication US10131666B2, “Heterocyclic morphinan derivatives and use thereof” (Purdue Pharma L.P., priority 2014, dated 2018)
